A short description of data set [1]: Caco-2 monolayer bidirectional permeability. The following applies: human. It counts as in vitro ADME, human. On the procedure: (§1) Permeability studies were conducted by an outside contractor on behalf of the assignee of the present invention and application to determine the permeability of Compound A through Caco-2 monolayers. An important factor of oral bioavailability is the ability of e compound to be absorbed in the small intestine. Measurement of drug apparent permeability (Papp) through cell monolayers is well correlated with human intestinal absorption, and several mammalian cell lines, including Caco-2, LLC-PK1 and MDCK, are appropriate for this measurement (Artursson, P. et al., Correlation between oral drug absorption in humans and apparent drug permeability coefficients in human intestinal epithelial (Caco-2) cells. Biochem Biophys Res Comm 175:880-885 (1991); Stewart. B. H., et al., Comparison of intestinal permeabilities in multiple in vitro and in situ models: relationship to absorption in humans. Pharm Res 12:693 (1995)). P-Glycoprotein (P-gp, encoded by MDR1) is a member of the ABC transporter super family and is expressed in the human intestine, liver and other tissues. Intestinal expression of P-gp may affect the oral bioavailability of drug molecules that are substrates for this transporter. Interaction with P-gp can be studied using direct assays of drug transport in polarized cell systems such as Caco-2 cell monolayers, and human P-gp cDNA-expressing LLC-PK1 and MDCK cell monolayers. Caco-2 cells (human adenocarcinoma colonic cell line Caco-2, ATCC Cat. No. […] The cells were cultured for 21-25 days with media replacement every 3-4 days. Monolayer integrity was evaluated by pre-experimental trans-epithelial electrical resistance (TEER) measurements and post-experimental lucifer yellow A to B flux determinations. […] Receiver solution was prepared by adding 1% DMSO to transport buffer. The test solution was of Compound A in DMSO in transport buffer at a final DMSO concentration of 1%. […] The donor and receiver solutions were added to the apical or basolateral chambers of the monolayers (depending on the direction of transport to be measured). The monolayers were incubated on an orbital shaker (50 rpm) at 37° C., with ambient humidity and CO2. After 90 minutes, samples from the donor and receiver chambers were removed for analysis. […] Duplicate monolayers were used for each incubation. Samples were analyzed by LC/MS/MS using peak area ratios to an internal standard. Test article concentrations were calculated based on the peak area ratios obtained for appropriate dilutions of the donor solution containing the test article at the nominal concentration in transport buffer. Samples were diluted as appropriate to ensure that the response was within the linear range of the mass spec detector. Comparator and control samples were analyzed by liquid scintillation counting. Lucifer yellow concentrations were determined using a fluorescence plate reader.
On the technique in general: Caco-2 cells form a polarised layer with tight junctions and transporters.

For another data set, the system named is Caco-2 cell monolayers. Put plainly: Caco-2 monolayer bidirectional permeability. It counts as in vitro ADME, human. The following applies: human, Caco-2, 90 min, 1 μM, pH 7.4. On the procedure:
as §1

In general, Papp A→B refers to how fast a substance crosses the layer from the apical side. A low value points to slow passage. As usually defined, the Papp B→A is how fast a substance crosses the layer from the basolateral side. By efflux ratio is commonly meant the permeability from basolateral to apical divided by that in the opposite direction, in the common usage.

The molecule `C[C@H](Cc1ccc(OCCCN2CCCCC2)c(OCCCN2CCCCC2)c1)[C@@H](C)Cc1ccc(OCCCN2CCCCC2)c(OCCCN2CCCCC2)c1` [Compound A, 1,4-bis{3,4-bis[3-(piperidin-1-yl)propoxy]phenyl}-2,3-dimethyl-(2R,3S)-butane] came in with a Papp A→B at 90 min, 1 μM in data set [1] (Caco-2, pH 7.4, BCS permeability class) of 0.514 to 14.2 ×10⁻⁶ cm/s. Moreover, the apparent permeability from apical to basolateral (Papp A→B) at 90 min, 1 μM in data set [1] (Caco-2, pH 7.4, Papp A to B) is 9.75 ×10⁻⁶ cm/s. In addition, the Papp B→A at 90 min, 1 μM in data set [1] (Caco-2, pH 7.4, Papp B to A) was determined as 1.74 ×10⁻⁶ cm/s. Moreover, the efflux ratio at 90 min, 1 μM in data set [1] (Caco-2, pH 7.4, Polarization Ratio [B-A/A-B]) is 0.1 to 0.2. Besides, in the data set on Caco-2 cell monolayers, the “Papp A to B” value worked out at 9.61 ×10⁻⁶ cm/s, the “Papp B to A” value was determined as 1.72 ×10⁻⁶ cm/s and the “Polarization Ratio [B-A/A-B]” value is recorded as 0.18.
